We go through 10 molecules from ChEMBL document CHEMBL1201862, “PubChem BioAssay data set” (2004).

The source made the active and inactive calls. Bounds are passed on as bounds.

Experiment [1] is described as follows: toxicity toward HepG2 liver cells – cell-based, plate reader, cherry-pick, antagonist series, cytotoxicity control, dose response (AID 743416). It is filed as functional.
The nature of experiment [2]: loss of viability in HepG2 cells – cell-based, CellTiter-Glo, cherry-picked, cytotoxicity control for Shn3 inhibitor project, dose response (AID 624134). The class given is functional.
Experiment [3] in a line: reduction of Shn3 3'UTR-driven luciferase in osteoblasts – cell-based, Clone20 osteoblasts, firefly luciferase, cherry-picked, dose response (AID 624132).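 Note: firefly luciferase luminescence from reporter carrying the Shn3 3'UTR in osteoblasts.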 The class given is functional.
Experiment [4] in a line: viability loss in HEK293 cells – cell-based, plate reader, cherry-picked samples, cytotoxicity control, dose response (AID 743446). It is filed as functional.
Experiment [5] can be described thus: blockade of melanocortin 4 receptor signaling – cell-based, plate reader, cherry pick, counter-screen for LGR2 antagonist project, dose response (AID 743444).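 Note: transfected HEK 293 cells stimulated with alpha-MSH peptide; potency of inhibitors of the alpha-MSH evoked signal.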 It is filed as functional.
The nature of experiment [6]: A549 cell cytotoxicity, dose response, cytotoxicity control, plate reader, cherry-pick, antagonist series (AID 743412). The class given is functional, cell-based.
Experiment [7] is described as follows: non-specific 3'UTR reporter inhibition in Clone20-Shn3RL – cell-based, Renilla luciferase, cherry-picked, counter-screen for Shn3 inhibitor project, dose response (AID 624133). It is filed as functional.
A short description of experiment [8]: blockers of bursicon-stimulated LGR2 cAMP reporter – cell-based, HEK293, CRE-luciferase reporter, cherry pick, set 2, dose response (AID 743343).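 Note: transfected cells were stimulated with diluted bursicon conditioned medium after compound addition.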 The class given is functional.
Experiment [9] is described as follows: cells. It is filed as functional, cell-based.
Experiment [10] has as its target T1, Small ubiquitin-related modifier 1 (Homo sapiens, UniProt P63165). Briefly: SUMO1 protein-protein binding blockers, potency – biochemical, FRET, dose response (AID 624383). The class given is functional. The conditions noted are these: read-out: IC50_Mean.
Experiment [11] is described as follows: cells. The class given is functional, cell-based. The source holds these as a separate data set.
In experiment [12] the test system is Streptococcus. Briefly: GAS UMAA2166 growth inhibition – luminescence, BacTiterGlo, counter-screen for streptokinase expression inhibitor project, dose response (AID 1915).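 Note: potency for reduction of bacterial viability or growth.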 It is filed as functional, organism-based.
For experiment [13], the target named is T1, Small ubiquitin-related modifier 1. Briefly: SUMO1 protein interaction blockers, potency – biochemical, fluorescence polarization, uHTS hits, dose response (AID 624382). The class given is functional. As to conditions: read-out: IC50_Mean.
Experiment [14] deals with T2, Streptokinase A (Streptococcus pyogenes serotype M1, UniProt P10520).
T2 sequence (P10520 whole entry): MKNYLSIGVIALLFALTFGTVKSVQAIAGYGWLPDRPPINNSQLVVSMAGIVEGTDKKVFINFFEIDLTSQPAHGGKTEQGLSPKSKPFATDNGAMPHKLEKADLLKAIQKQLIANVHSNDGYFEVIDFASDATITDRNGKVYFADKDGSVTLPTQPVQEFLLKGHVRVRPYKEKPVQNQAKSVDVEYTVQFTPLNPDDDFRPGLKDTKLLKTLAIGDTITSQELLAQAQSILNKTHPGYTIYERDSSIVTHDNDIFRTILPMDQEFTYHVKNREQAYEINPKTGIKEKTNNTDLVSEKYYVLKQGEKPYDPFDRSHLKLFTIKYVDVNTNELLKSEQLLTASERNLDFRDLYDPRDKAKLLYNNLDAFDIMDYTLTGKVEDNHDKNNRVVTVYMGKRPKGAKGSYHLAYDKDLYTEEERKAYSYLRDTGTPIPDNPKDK
The experiment in a line: viability-normalized secreted streptokinase activity reduction – plasminogen activation absorbance, OD405, dose response (AID 1914).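 Note: secreted streptokinase activity via plasminogen activation per viability signal from cell pellet.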 The class given is functional, Streptococcus pyogenes M1 GAS.

Experiment [15] concerns the target T3, Sentrin-specific protease 8 (Homo sapiens, UniProt Q96LD8).
T3 sequence (Q96LD8 whole entry): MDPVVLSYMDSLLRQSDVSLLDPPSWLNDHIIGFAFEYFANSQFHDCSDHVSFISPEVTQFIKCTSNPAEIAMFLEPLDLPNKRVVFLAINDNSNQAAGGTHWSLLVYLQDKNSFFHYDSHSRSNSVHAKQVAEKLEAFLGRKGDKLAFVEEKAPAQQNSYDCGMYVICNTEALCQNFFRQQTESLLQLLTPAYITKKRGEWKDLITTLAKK
It is filed as functional.

Experiment [16] concerns the target T3, Sentrin-specific protease 8. It is filed as functional. This is another data set of the same source.
Experiment [17] can be described thus: Counterscreen for activators of the function of SWI/SNF related, matrix associated, actin dependent regulator of chromatin, subfamily a, member 2 (SMARCA2, BRM): Luminescence-based cell-based high throughput dose response assay to identify non-selective compounds using the VP16 reporter assay. It is filed as functional.
Experiment [18] deals with SWI/SNF-related matrix-associated actin-dependent regulator of chromatin subfamily A member 2 (Homo sapiens, UniProt P51531). The experiment in a line: Luminescence-based cell-based high throughput dose response assay to identify activators of the function of SWI/SNF related, matrix associated, actin dependent regulator of chromatin, subfamily a, member 2 (SMARCA2, BRM). The class given is functional.

Experiment [19] deals with T4, Replicative DNA helicase DnaB (Mycobacterium tuberculosis, UniProt P9WMR3).
T4 sequence (P9WMR3 whole entry): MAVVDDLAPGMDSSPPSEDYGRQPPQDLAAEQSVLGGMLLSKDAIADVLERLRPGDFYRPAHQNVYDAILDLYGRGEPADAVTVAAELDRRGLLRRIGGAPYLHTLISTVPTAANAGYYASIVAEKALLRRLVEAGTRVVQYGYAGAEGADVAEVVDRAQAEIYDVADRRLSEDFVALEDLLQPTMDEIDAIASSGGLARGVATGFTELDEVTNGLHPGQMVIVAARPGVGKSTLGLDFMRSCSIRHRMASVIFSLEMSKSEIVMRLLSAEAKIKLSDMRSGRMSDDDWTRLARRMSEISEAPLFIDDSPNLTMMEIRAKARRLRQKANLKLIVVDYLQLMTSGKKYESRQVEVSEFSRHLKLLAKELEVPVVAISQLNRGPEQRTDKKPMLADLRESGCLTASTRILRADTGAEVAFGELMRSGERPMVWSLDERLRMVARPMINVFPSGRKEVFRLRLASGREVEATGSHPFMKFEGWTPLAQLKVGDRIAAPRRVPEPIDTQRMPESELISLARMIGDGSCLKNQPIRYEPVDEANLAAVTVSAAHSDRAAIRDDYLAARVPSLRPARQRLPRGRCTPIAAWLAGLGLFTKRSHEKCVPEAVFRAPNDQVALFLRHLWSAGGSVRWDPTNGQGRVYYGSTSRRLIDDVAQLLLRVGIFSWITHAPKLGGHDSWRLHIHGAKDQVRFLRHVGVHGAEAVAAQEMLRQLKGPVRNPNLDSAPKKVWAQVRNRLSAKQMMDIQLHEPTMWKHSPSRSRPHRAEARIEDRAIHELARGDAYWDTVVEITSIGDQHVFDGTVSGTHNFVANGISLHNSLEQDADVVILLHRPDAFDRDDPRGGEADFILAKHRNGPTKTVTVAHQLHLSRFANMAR
Briefly: DnaB intein splicing inhibitors, dose response, biochemical, cell-free fluorescence (AID 449749). It is filed as functional.

In experiment [20] the target is T5, Protein RecA (Mycobacterium tuberculosis, UniProt P9WHJ3).
T5 sequence (P9WHJ3 whole entry): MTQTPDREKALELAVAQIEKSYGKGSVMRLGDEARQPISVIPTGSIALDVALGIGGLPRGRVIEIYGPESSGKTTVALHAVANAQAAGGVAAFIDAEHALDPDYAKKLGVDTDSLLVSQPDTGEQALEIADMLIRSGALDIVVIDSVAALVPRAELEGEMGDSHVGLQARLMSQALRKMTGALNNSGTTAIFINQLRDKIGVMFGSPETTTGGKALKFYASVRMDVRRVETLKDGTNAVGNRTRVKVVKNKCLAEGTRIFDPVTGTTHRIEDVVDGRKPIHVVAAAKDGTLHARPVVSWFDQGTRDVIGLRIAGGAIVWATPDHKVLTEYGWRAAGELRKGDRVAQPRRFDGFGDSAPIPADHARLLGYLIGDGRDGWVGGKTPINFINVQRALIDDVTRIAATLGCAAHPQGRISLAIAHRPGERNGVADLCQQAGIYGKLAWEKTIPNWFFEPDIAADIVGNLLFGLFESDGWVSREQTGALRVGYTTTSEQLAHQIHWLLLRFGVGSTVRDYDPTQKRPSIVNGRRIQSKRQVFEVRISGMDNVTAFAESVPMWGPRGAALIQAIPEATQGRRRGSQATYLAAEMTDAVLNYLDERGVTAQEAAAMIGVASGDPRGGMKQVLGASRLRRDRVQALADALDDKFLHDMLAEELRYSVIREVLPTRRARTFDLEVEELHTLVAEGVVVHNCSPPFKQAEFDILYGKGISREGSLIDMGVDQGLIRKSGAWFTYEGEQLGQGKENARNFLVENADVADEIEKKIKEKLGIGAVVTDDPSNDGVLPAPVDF
Briefly: Fluorescence Cell-Free Homogeneous Dose Retest to Identify Inhibitors of RecA-Intein Splicing Activity. [Related pubchem assays (depositor defined):AID2097, AID2223, AID489010, AID492950]. It is filed as functional.

The target in experiment [21] is Ras and Rab interactor 1/Tyrosine-protein kinase ABL1 (Homo sapiens, UniProt P00519+Q13671). It is filed as functional.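 Note: biochemical TR-FRET dose-response test measuring inhibition of binding between Rin1 and Abl proteins.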
Experiment [22] concerns the target Paired box protein Pax-8 (Homo sapiens, UniProt Q06710). The experiment in a line: PAX8 transcriptional activity inhibition in RMG-I – RMG-I cells, luciferase, cherry-pick, dose response (AID 687027).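 Note: luciferase reporter driven by Pax8 target thyroperoxidase promoter measured by SteadyGlo luminescence.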 The class given is functional, cell-based.
Experiment [23] is described as follows: general cell-killing toxicity readout – plate reader, dry powder samples, cytotoxicity control for PAX8 inhibitor project, dose response (AID 743021). It is filed as functional, cell-based.
Experiment [24] has as its target T6, Heat shock factor protein 1 (Mus musculus, UniProt P38532).
T6 sequence (P38532 whole entry): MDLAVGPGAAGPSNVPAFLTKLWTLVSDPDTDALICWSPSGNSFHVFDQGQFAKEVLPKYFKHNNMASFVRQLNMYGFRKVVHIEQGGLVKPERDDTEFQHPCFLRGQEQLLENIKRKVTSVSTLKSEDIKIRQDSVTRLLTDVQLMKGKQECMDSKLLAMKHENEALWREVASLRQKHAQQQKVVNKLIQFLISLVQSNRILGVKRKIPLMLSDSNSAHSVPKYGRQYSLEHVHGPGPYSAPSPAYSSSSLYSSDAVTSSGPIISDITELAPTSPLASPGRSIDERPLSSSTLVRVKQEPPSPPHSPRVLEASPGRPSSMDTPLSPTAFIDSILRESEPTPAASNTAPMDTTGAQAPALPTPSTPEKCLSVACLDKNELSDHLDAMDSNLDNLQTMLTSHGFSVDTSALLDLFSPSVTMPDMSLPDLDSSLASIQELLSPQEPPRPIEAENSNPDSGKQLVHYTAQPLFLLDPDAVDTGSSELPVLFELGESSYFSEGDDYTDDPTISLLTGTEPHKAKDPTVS
The experiment in a line: enhancement of HSF1-driven luciferase signal – cell-based, NIH3T3, luminescence, dose retest, confirmation (AID 435004).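 Note: stress induced by proteasome inhibitor MG132 added 30 min after compound; luciferase reporter driven by HSF1 response element in NIH3T3 cells; actives raise luminescence as potentiators of the MG132 stress response.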 The class given is functional.

Experiment [25] concerns HEK293. Briefly: viability loss in HEK293T cells – cell-based, ATP luminescence, cherry-pick samples, cytotoxicity control, dose response (AID 687005).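 Note: cells exposed to compound for 48 hours.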 As to conditions: Homo sapiens. The class given is functional.
Experiment [26] in a line: HEK293 Cytotoxicity Assay Measured in Cell-Based System Using Plate Reader - 7071-01_Inhibitor_Dose_CherryPick_Activity_Set2. The class given is functional.

T1 sequence (P63165 whole entry): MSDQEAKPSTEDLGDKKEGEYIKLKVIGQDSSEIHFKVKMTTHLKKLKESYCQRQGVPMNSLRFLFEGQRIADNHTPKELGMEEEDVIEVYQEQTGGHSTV
Sequence of SWI/SNF-related matrix-associated actin-dependent regulator of chromatin subfamily A member 2 (P51531 whole entry): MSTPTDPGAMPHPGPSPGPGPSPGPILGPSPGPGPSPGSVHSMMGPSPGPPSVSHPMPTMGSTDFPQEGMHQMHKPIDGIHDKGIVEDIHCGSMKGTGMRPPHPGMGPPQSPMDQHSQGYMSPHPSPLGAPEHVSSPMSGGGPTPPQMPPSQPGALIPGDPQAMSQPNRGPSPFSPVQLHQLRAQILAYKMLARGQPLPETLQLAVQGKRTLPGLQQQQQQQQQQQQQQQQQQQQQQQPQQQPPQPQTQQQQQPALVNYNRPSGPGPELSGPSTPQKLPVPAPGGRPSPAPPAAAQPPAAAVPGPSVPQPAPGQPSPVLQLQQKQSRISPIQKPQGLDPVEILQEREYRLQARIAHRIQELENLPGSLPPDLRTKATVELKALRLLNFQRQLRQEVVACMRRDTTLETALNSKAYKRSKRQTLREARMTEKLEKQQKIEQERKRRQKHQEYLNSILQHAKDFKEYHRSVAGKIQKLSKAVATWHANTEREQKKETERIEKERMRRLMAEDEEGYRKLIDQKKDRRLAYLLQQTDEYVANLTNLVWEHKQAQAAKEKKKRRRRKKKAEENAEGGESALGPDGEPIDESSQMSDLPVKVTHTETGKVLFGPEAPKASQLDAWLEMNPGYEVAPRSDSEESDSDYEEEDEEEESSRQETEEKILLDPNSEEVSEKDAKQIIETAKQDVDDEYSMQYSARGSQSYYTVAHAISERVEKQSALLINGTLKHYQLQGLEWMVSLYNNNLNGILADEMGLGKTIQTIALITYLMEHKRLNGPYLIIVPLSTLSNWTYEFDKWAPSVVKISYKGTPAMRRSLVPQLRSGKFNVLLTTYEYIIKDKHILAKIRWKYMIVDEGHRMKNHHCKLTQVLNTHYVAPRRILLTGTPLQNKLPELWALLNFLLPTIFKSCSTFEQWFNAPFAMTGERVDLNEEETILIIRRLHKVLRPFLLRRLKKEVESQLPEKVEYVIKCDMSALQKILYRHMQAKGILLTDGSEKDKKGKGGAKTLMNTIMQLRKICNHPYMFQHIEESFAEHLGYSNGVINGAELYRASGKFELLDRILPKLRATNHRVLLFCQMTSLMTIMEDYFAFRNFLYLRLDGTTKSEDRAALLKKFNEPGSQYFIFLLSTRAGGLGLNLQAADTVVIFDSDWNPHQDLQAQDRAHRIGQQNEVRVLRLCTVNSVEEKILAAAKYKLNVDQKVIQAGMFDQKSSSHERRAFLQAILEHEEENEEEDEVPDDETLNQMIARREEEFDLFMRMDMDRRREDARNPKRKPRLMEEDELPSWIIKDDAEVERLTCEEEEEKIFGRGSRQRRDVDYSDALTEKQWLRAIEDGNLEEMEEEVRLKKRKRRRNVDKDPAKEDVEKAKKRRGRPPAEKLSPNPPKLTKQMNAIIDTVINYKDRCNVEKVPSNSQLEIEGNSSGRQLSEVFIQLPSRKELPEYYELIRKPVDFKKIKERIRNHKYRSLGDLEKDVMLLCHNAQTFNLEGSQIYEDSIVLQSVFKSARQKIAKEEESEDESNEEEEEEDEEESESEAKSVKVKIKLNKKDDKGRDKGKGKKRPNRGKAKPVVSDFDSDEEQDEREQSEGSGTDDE
Sequence of Ras and Rab interactor 1/Tyrosine-protein kinase ABL1 (P00519 whole entry): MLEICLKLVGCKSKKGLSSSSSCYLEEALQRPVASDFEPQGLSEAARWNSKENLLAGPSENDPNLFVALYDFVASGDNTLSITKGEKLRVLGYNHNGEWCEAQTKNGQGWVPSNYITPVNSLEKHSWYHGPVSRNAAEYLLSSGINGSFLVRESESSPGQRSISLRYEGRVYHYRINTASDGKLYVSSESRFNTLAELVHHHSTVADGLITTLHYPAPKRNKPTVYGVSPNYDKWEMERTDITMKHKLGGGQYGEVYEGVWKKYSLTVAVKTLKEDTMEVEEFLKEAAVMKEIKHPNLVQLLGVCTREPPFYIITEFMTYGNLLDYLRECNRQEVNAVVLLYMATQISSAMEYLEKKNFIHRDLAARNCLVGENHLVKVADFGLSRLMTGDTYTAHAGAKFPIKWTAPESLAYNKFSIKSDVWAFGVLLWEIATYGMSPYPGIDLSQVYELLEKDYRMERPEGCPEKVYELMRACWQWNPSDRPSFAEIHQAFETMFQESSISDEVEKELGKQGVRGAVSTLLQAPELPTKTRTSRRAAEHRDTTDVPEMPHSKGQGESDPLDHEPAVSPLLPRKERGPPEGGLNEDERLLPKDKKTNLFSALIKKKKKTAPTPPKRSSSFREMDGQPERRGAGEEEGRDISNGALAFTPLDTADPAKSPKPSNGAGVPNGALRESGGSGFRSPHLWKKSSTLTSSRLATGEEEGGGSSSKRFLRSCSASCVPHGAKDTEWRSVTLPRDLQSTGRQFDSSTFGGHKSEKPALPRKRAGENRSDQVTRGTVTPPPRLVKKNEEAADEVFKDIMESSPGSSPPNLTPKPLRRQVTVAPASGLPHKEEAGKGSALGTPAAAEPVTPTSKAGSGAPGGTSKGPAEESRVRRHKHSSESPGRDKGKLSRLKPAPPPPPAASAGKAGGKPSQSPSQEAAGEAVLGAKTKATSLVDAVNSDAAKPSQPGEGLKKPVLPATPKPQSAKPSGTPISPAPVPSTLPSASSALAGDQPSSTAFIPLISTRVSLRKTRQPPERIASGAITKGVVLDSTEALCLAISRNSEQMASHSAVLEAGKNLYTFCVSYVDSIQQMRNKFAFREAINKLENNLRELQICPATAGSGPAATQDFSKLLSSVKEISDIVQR
Sequence of Ras and Rab interactor 1/Tyrosine-protein kinase ABL1 (Q13671 whole entry): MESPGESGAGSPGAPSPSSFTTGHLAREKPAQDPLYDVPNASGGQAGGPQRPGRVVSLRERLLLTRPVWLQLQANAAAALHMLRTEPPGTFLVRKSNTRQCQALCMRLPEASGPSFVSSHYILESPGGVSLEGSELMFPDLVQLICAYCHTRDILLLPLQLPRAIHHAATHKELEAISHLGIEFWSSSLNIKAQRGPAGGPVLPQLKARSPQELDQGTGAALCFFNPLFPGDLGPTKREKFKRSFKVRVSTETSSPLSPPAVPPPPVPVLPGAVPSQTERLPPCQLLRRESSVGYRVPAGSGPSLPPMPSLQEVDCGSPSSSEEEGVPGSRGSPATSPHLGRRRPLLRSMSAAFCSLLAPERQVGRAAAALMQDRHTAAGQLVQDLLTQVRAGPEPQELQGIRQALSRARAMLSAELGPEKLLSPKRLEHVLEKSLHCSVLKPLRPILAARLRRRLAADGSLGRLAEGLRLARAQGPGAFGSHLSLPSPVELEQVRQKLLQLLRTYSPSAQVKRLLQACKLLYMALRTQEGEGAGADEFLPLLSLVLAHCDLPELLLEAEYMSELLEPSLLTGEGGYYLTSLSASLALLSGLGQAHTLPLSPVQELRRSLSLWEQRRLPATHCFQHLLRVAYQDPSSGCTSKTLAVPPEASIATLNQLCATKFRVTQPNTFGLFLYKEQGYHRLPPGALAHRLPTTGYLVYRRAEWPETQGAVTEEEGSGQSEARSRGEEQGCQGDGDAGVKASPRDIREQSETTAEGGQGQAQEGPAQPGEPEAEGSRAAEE
Sequence of Paired box protein Pax-8 (Q06710 whole entry): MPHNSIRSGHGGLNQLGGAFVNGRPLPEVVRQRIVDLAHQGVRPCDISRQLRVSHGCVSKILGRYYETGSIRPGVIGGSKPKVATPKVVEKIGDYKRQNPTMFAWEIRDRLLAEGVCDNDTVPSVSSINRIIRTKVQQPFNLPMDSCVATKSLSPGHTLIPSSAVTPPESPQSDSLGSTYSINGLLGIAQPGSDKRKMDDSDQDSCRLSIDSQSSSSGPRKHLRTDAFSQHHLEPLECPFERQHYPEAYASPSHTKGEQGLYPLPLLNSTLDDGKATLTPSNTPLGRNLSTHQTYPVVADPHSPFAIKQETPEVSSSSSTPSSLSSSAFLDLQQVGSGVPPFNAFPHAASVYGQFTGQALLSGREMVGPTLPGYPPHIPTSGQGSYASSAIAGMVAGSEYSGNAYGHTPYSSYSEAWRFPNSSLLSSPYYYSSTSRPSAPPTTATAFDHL

Take `CCCCNc1c(-c2ccc(OC)c(SC3CCCCC3)c2)nc2ccc(C)cn12`: the AC50 in [1] was 18.4 µM (active); in [2], 45 µM (active); in [3] it was 3.68 µM (active); in experiment [4], 15.5 µM (active); in experiment [5], 9.94 µM (active); in [6], 22.1 µM (active). The AC50 was 2.14 µM (active) in [7] and 7.85 µM (active) in experiment [8].
For `N#C/C(=C\c1ccc(/C=C(/C#N)c2nn(CCO)c(N)c2C#N)cc1)c1nn(CCO)c(N)c1C#N`, the EC50 is > 350 µM (not active) in experiment [9], > 350 µM (not active) in experiment [11], > 150 µM (not active) in experiment [12] and > 150 µM (not active) in experiment [14]. The IC50 in experiment [10] is 2.85 µM (active); in experiment [13], > 66.6 µM (inactive).
Take `O=C(Nc1ccc(N2CCN(C(=O)c3ccc(Cl)cc3)CC2)cc1)c1cc2ccccc2o1`: the AC50 was 28.6 µM (active) in experiment [5] and 29.4 µM (active) in [8].
For the molecule `O=C(Nc1c(-c2ccc(Cl)cc2)n[nH]c1O)c1ccc(Br)cc1`, the IC50 was 48 µM (active) in experiment [15] and 34.1 µM (active) in experiment [16].
Regarding `COc1ccc(C2Nc3ccccc3C(=O)N2c2ccc(C)cc2)cc1COc1ccccn1` (centres undefined), the EC50 in experiment [17] and in experiment [18] was > 91.1 µM (inactive) in each case.
Turning to `COc1cc(C(c2c(C)[nH][nH]c2=O)c2c(C)[nH][nH]c2=O)ccc1OS(=O)(=O)c1ccc(C)cc1`, the AC50 in [19] was 484 nM (active). Further, the IC50 in experiment [15] was 35.4 µM (active); in experiment [16] it was 20.4 µM (active). In addition, the EC50 in experiment [20] was 195 nM (active).
For the molecule `OCC1OC(n2cnc3c(NCc4ccccc4O)ncnc32)C(O)C1O` (centres undefined), the IC50 in experiment [21] is > 24.5 µM (inactive). The AC50 in experiment [22] is 759 nM (active); in [23] it was 4.79 µM (active).
Regarding `Cc1cc(C)nc(Sc2nc(Cl)nc(N(c3ccccc3)c3ccccc3)n2)n1`, the EC50 in [17] was > 91.1 µM (inactive); in [24] it was > 260 µM (inactive); in experiment [18], > 91.1 µM (inactive).
Take `C[C@@H]1CCCCO[C@H](CN(C)C(=O)Nc2ccc(F)cc2)[C@H](C)CN([C@@H](C)CO)C(=O)c2cc(NS(=O)(=O)c3ccc(Cl)cc3)ccc2O1`: the AC50 in [25] and in experiment [26] was 21.9 µM (active) each time.
Turning to `O=C(C[C@@H]1CC[C@@H]2[C@H](COC[C@@H](O)CN2C(=O)Nc2ccc(Cl)cc2)O1)NC1Cc2ccccc2C1`, the AC50 in [25] and in experiment [26] was 25.2 µM (active) in each case.
